Patent US20170368089A1, “COMPOSITION FOR PREVENTING OR TREATING COLITIS” (UNIVERSITY-INDUSTRY COOPERATION GROUP OF KYUNG HEE …, priority 2012, published 2017)

How the values were obtained:
IL-1 beta [1] = experiment: IL-1 beta expression in colon tissue (ELISA), TNBS acute colitis, third experiment; assay type: in vivo, male mice (C57BL/6); conditions: Table 12; TNBS-treated mice, 10 mg/kg orally, 3 days
Method: (§1) Meanwhile, 0.1 ml of normal saline solution was orally administered to the normal group. Since then, from the next day, the sample dissolved in normal saline solution was orally administered in the volume that was decided in advance one time a day for 3 days. At the next day after completing the sample administration, the experimental animals were suffocated to death with carbon dioxide, and the colon from appendix to the region just before the anus was removed from the colon region. At this time, as a medicine sample, the experiments using the butanol-soluble fraction of the Anemarrhena asphodeloides Bunge extract, Mangiferin, and a combined extract were separately performed at a distance of time, respectively, and the effects of the medicine samples on preventing or treating colitis were reasonably analyzed based on the group supplied with normal saline solution instead of a specific medicine in the model animals with acute colitis induced by TNBS for each of the experiments. […] While the supernatant was stored at −80° C., the expression amounts of IL-1 beta, IL-6, and TNF-alpha, which were proinflammatory cytokines, and the expression amount of IL-10, which was anti-inflammatory cytokine, were measured using a 96-well ELISA plate kits (Pierce Biotechology, Inc., Rockford, Ill., USA).

Myeloperoxidase (MPO) = experiment: MPO activity of colon tissue, TNBS acute colitis, third experiment; assay type: in vivo, male mice (C57BL/6); conditions: Table 12; TNBS-treated mice, 10 mg/kg orally, 3 days
Method: as §1, with “Since then, the homogenized colon tissue was centrifuged under the conditions of 4° C. and 13000 rpm for 15 minutes, and then,” for “While”, “supernatant thereof” for “supernatant”, “obtained. […] Since then, 100 μl of a stop solution was added to stop the reaction, and then, the absorbance was measured” for “stored”, “450 nm” for “−80° C., the expression amounts of IL-1 beta, IL-6, and TNF-alpha, which were proinflammatory cytokines, and the expression amount of IL-10, which was anti-inflammatory cytokine, were measured”, “an” for “a 96-well”, “reader.” for “plate kits (Pierce Biotechology, Inc., Rockford, Ill., USA).”

IL-6 [2] = experiment: IL-6 expression in colon tissue (ELISA), TNBS acute colitis, third experiment; assay type: in vivo, male mice (C57BL/6); conditions: Table 12; TNBS-treated mice, 10 mg/kg orally, 3 days
Method: as §1

IL-1 beta [3] = experiment: IL-1 beta expression in colon tissue (ELISA), TNBS colitis, first experiment; assay type: in vivo, ICR male mice; conditions: TNBS-treated mice, 10 mg/kg orally, 3 days
Method: (§2) Among the experimental groups, one group was set as a normal group, and for the experimental animals in other groups, colitis was induced with 2,4,6-trinitrobenzenesulfonic acid (TNBS). In detail, after lightly anesthetizing the experimental animals with ether, 0.1 ml of the solution prepared by mixing […] of 2,4,6-Trinitrobenzene sulfonic acid (NBS) solution with 50% ethanol was injected into the colon through the anus using a syringe having 1 ml volume and oval point, respectively; and then, the syringe was vertically picked up, and then, maintained for 30 seconds to induce the inflammation. Meanwhile, 0.1 ml of normal saline solution was orally administered to the normal group. Since then, from the next day, the sample dissolved in normal saline solution was orally administered in the volume that was decided in advance one time a day for 3 days. At the next day after completing the sample administration, the experimental animals were suffocated to death with carbon dioxide, the colon from appendix to the region just before the anus was removed from the colon region.
(§3) 250 μl of RIPA butter including protease inhibitor cocktail was added to 100 mg of the colon tissue of experimental animal, and then, the colon tissue was homogenized. Since then, the homogenized colon tissue was centrifuged under the conditions of 4° C. and 13000 rpm for 15 minutes to obtain supernatant. While the supernatant was stored at −80° C., the expression amounts of IL-1 beta, IL-6, and TNF-alpha were measured using a 96-well ELISA plate kits (Pierce Biotechology, Inc., Rockford, Ill., USA).

TNF-alpha [4] = experiment: TNF-alpha expression in colon tissue (ELISA), TNBS colitis, second experiment; assay type: in vivo, ICR male mice; conditions: Table 9, extract-based samples, TNBS-treated mice, 10 mg/kg orally, 3 days
Method: as §2, with “At the next day after completing the sample administration, the experimental animals were suffocated to death with carbon dioxide, the colon from appendix to the region just before the anus was removed from the colon region.” left out
as §3, with “Since then, the homogenized colon tissue was centrifuged under the conditions of 4° C. and 13000 rpm for 15 minutes to obtain supernatant.” left out

IL-6 [5] = experiment: IL-6 expression in colon tissue (ELISA), TNBS colitis, second experiment; assay type: in vivo, ICR male mice; conditions: Table 9, extract-based samples, TNBS-treated mice, 10 mg/kg orally, 3 days
Method: as §2, with “At the next day after completing the sample administration, the experimental animals were suffocated to death with carbon dioxide, the colon from appendix to the region just before the anus was removed from the colon region.” left out
as §3, with “Since then, the homogenized colon tissue was centrifuged under the conditions of 4° C. and 13000 rpm for 15 minutes to obtain supernatant.” left out

TNF-alpha [6] = experiment: TNF-alpha expression in colon tissue (ELISA), TNBS colitis, first experiment; assay type: in vivo, ICR male mice; conditions: Table 4 (group 1), TNBS-treated mice, 10 mg/kg orally, 3 days
Method: as §2, §3

TNF-alpha [7] = experiment: TNF-alpha expression in colon tissue (ELISA), TNBS acute colitis, third experiment; assay type: in vivo, male mice (C57BL/6); conditions: Table 12; TNBS-treated mice, 10 mg/kg orally, 3 days
Method: as §1

## Nc1ccc(O)c(C(=O)O)c1 [mesalazine, Mesalazine]
IL-1 beta [1]
  IL-1β (Percentage to group supplied with normal saline solution after treating TNBS): 30.3%
Myeloperoxidase (MPO)
  MPO activity (Percentage to group supplied with normal saline solution after treating TNBS): 47.8%
IL-6 [2]
  IL-6 (Percentage to group supplied with normal saline solution after treating TNBS): 26.6%
IL-1 beta [3]; Table 4 (group 1)
  IL-1 beta conc.: 19.8 ± 14.4 pg/mg
IL-1 beta [3]; Table 5 (group 2)
  IL-1 beta conc.: 31.1 ± 2.9 pg/mg
TNF-alpha [4]
  TNF-alpha conc.: 23.79 ± 2.82 pg/mg
IL-6 [5]
  IL-6 conc.: 1.32 ± 0.11 pg/mg
TNF-alpha [6]
  TNF-alpha conc.: 26.1 ± 8.8 pg/mg
TNF-alpha [7]
  TNF-α (Percentage to group supplied with normal saline solution after treating TNBS): 36.8%
